Test results from US12527762B2 (priority 2021, dated 2026).
Several values for one entry are separate records, joined by “and”; a condition that tells them apart may be missing. Equal entries are not always repeated. Where two headings read alike, the source gives them in different places.

Assays:
[1] = system: PANC-1 pancreatic cancer cell line; details: value from literature, read-out: IC50 (positive control); cited from earlier work
[2] = system: MIAPACA-2 pancreatic cancer cell line; details: value from literature, read-out: IC50 (positive control); cited from earlier work
in vitro = details: African green monkey
SARS-CoV-2 = test: microbe, parasite or virus in culture; format: cell-based
[3] = system: MCF7/PR Paclitaxel resistant MCF7 cell line; test: Luminescent cell viability assay (CellTiter glo), subtype-specific breast cancer cell lines; format: cell-based
[4] = system: PANC-1 pancreatic cancer cell line; test: Inhibition of cancer cell proliferation, CCK-8 assay; format: cell-based
[5] = system: H-1299 non-small cell lung cancer cell line; test: as above; format: cell-based
[6] = system: ZR-75-1 hormone-positive breast cancer cell line; test: Luminescent cell viability assay (CellTiter glo), subtype-specific breast cancer cell lines; format: cell-based; details: for IC50: ZR-75-1, hormone-positive breast cancer cell line; for IC50 fold lower than Tamoxifen: ZR-75-1 cells
[7] = system: HCC1419 HER2-positive breast cancer cell line; test: as above; format: cell-based; details: for IC50: HCC1419, HER2-positive breast cancer cell line; for IC50 fold lower than Herceptin: HCC1419 cells
[8] = system: HCC1937 triple negative breast cancer cell line; test: as above; format: cell-based
[9] = system: MIAPACA-2 pancreatic cancer cell line; test: Inhibition of cancer cell proliferation, CCK-8 assay; format: cell-based
[10] = system: A-549 non-small cell lung cancer cell line; test: as above; format: cell-based
[11] = system: MDA-MB-231 breast cancer cell line; test: as above; format: cell-based
[12] = system: Hep-3B liver cancer cell line; test: as above; format: cell-based
[13] = system: MDA-MB-453 HER2-positive breast cancer cell line; test: Luminescent cell viability assay (CellTiter glo), subtype-specific breast cancer cell lines; format: cell-based
[14] = system: Huh-7 liver cancer cell line; test: Inhibition of cancer cell proliferation, CCK-8 assay; format: cell-based
[15] = system: MDA-MB-231 triple negative breast cancer cell line; test: Luminescent cell viability assay (CellTiter glo), subtype-specific breast cancer cell lines; format: cell-based; details: for IC50: MDA-MB-231, triple negative breast cancer cell line; for IC50 fold lower than Cisplatin: MDA-MB-231 cells
[16] = system: MCF-7 breast cancer cell line; test: Inhibition of cancer cell proliferation, CCK-8 assay; format: cell-based
[17] = system: MDA-MB-231 breast cancer cell line; details: value from literature, read-out: IC50 (positive control); cited from earlier work
[18] = system: MCF-7 breast cancer cell line; details: value from literature, read-out: IC50 (positive control); cited from earlier work
[19] = system: Huh-7 liver cancer cell line; details: value from literature, read-out: IC50 (positive control); cited from earlier work
[20] = system: Hep-3B liver cancer cell line; details: value from literature, read-out: IC50 (positive control); cited from earlier work
[21] = Artificial membrane permeability of camostat, side-bi-side cell system (GIT-0-Lipid on PVDF membrane); format: in vitro ADME
Method: As an artificial membrane, 200 μl of a GIT-0-Lipid solution was used by dropping on the center of a 25 mm hydrophobic PVDF membrane. 5 ml of a 37° C. pH 5.0 FeSSIF solution was taken and contained in a donor cell, and 20 mg of the sample was weighed and administered to the donor cell. The test was started after adding 5 ml of an ethyl alcohol. pH 7.4 PBS buffer (1:9, v/v) solution to an acceptor cell, and 200 μl of the solution was taken five times from the acceptor cell every predetermined time and used as a test solution. Then, the acceptor cell was filled with 1 ml of the ethyl alcohol: pH 7.4 PBS buffer (1:9, v/v) solution to maintain a total volume of 5 ml.

[22] = Solubility of niclosamide in pH 7 buffer solution (HPLC); format: physicochemical
Method: A pH 7 solution prepared by mixing 0.1 N potassium phosphate and 0.1 N sodium hydroxide was used as the pH 7 buffer solution. […] After 1 hour of stirring, 5 ml of a supernatant was filtered with a 0.45 μm PVDF filter, and then the amount of dissolved niclosamide was evaluated using the filtered solution as a sample.

[23] = format: in vitro ADME; details: PAMPA
Method: The permeability of an artificial membrane (barrier membrane from PermeaPad, 25 mm) to niclosamide of the cocrystal of Example 17 of the present invention was evaluated using the side-bi-side cell system, and compared with that of the niclosamide single material. 5 ml of an FeSSIF solution (37° C.) at pH 6.5 added with 3% (w/w) Kolliphor ELP was taken and contained in a donor cell, and […] of each sample was weighed and administered to the donor cell. 5 ml of a PBS solution of pH 7.4 added with 20% (w/w) HP-β-CD was added to the acceptor cell, the test was started, and 200 μl of the solution was taken 5 times from the acceptor cell every predetermined time and used as the test solution. Then, the acceptor cell was filled with the PBS solution of pH 7.4 added with 1 ml of 20% (w/w) HP-p-CD, and the total volume was maintained at 5 ml.

[24] = SARS-CoV-2 in Vero cells, 24 hours after infection, read-out: IC50
[25] = Severe acute respiratory syndrome coronavirus 2, SARS-CoV-2 in Vero cells, 24 hours after infection, read-out: IC50

In the case of `Nc1ccn([C@@H]2O[C@H](CO)[C@@H](O)C2(F)F)c(=O)n1` [Gemcitabine], the IC50 [1] is given as 42.9 µM and the IC50 [2] is given as 92.7 µM.
For `CCC(CC)COC(=O)[C@H](C)N[P@](=O)(OC[C@H]1O[C@@](C#N)(c2ccc3c(N)ncnn23)[C@H](O)[C@@H]1O)Oc1ccccc1` [Remdesivir], the CC50 (in vitro) was > 50 µM, the “IC50 fold higher than the IC50 of the cocrystal” value (SARS-CoV-2; SARS-CoV-2 in Vero cells) was “about 21.75 fold” and the “SI (selectivity index, CC50/IC50)” value (SARS-CoV-2; SARS-CoV-2 in Vero cells) was 14.35. It also gave an IC50 (SARS-CoV-2; Severe acute respiratory syndrome coronavirus 2, Vero, 24 h) of 3.48 µM.
For `CN(C)C(=O)COC(=O)Cc1ccc(OC(=O)c2ccc(NC(=N)N)cc2)cc1.O=C(Nc1ccc([N+](=O)[O-])cc1Cl)c1cc(Cl)ccc1O` [Example 1], the IC50 [3] was 5.69 µM, the IC50 ([4]; PANC-1, 48 hours drug treatment) was 0.0993 µM and the “IC50 fold lower than gemcitabine” value ([4]; PANC-1 cell line) was 432 fold. For the same molecule, the IC50 ([5]; H-1299, 48 hours drug treatment) was 0.381 µM, the “IC50 fold lower than gefitinib” value ([5]; H-1299 cells) was 45 fold and the IC50 [6] was 5.37 µM. The “IC50 fold lower than Tamoxifen” value [6] was 1.7 fold, the IC50 [7] was 1.27 µM and the “IC50 fold lower than Herceptin” value [7] was 19 fold. For the same molecule, the IC50 [8] was 4.98 µM, the “IC50 fold lower than gemcitabine” value ([9]; MIAPACA-2 cell line) was 127 fold and the IC50 ([9]; MiaPaCa-2, 48 hours drug treatment) was 0.729 µM. For the same molecule, the IC50 ([10]; A-549, 48 hours drug treatment) was 0.976 µM, the “IC50 fold lower than gefitinib” value ([10]; A-549 cells) was 13 fold and the IC50 ([11]; MDA-MB-231, 48 hours drug treatment) was 0.126 µM. The “IC50 fold lower than docetaxel” value ([11]; MDA-MB-231 cells) was 5 fold, the “IC50 fold lower than Sorafenib” value ([12]; Hep-3B cells) was 297 fold and the IC50 ([12]; Hep-3B, 48 hours drug treatment) was 0.0413 µM. For the same molecule, the IC50 [13] was 7.46 µM, the IC50 ([14]; Huh-7, 48 hours drug treatment) was 0.134 µM and the “IC50 fold lower than Sorafenib” value ([14]; Huh-7 cells) was 44 fold. For the same molecule, the CC50 (Vero cells) was > 50 µM, the IC50 [15] was 1.75 µM and the “IC50 fold lower than Cisplatin” value [15] was 14 fold. The IC50 ([16]; MCF-7, 48 hours drug treatment) was 0.428 µM, the “IC50 fold lower than docetaxel” value ([16]; MCF-7 cells) was 1.7 fold and the “SI (selectivity index, CC50/IC50)” value (SARS-CoV-2; SARS-CoV-2 in Vero cells) was 306. For the same molecule, the IC50 (SARS-CoV-2; [24]) was 0.16 µM.
In the case of `CC(=O)O[C@@]12CO[C@@H]1C[C@H](O)[C@@]1(C)C(=O)[C@H](O)C3=C(C)[C@@H](OC(=O)[C@H](O)[C@@H](NC(=O)OC(C)(C)C)c4ccccc4)C[C@@](O)([C@@H](OC(=O)c4ccccc4)[C@H]21)C3(C)C` [Docetaxel, reference compound], the IC50 ([3]; Homo sapiens) is listed as 11.4 µM, the IC50 ([6]; Homo sapiens) is listed as 24.2 µM and the IC50 [17] is listed as 0.635 µM. The IC50 ([7]; Homo sapiens) was ≥ 25 µM, the IC50 ([8]; Homo sapiens) was ≥ 25 µM and the IC50 [18] was 0.763 µM. For the same molecule, the IC50 ([13]; Homo sapiens) was ≥ 25 µM and the IC50 ([15]; Homo sapiens) was ≥ 25 µM.
With `Cc1cccc(C)c1OCC(=O)N[C@@H](Cc1ccccc1)[C@@H](O)C[C@H](Cc1ccccc1)NC(=O)[C@H](C(C)C)N1CCCNC1=O` [Lopinavir] the CC50 (in vitro) was > 50 µM, the “IC50 fold higher than the IC50 of the cocrystal” value (SARS-CoV-2; SARS-CoV-2 in Vero cells) was “about 64.38 fold” and the “SI (selectivity index, CC50/IC50)” value (SARS-CoV-2; SARS-CoV-2 in Vero cells) was 4.85. The IC50 (SARS-CoV-2; [25]) was 10.3 µM.
With `CCN(CC)CCCC(C)Nc1ccnc2cc(Cl)ccc12` (stereo not shown) [Chloroquine] the CC50 (in vitro) was > 150 µM and the IC50 (SARS-CoV-2; [25]) was 7.47 µM.
For `N.N.[Cl][Pt][Cl]` [Cisplatin, reference compound], the IC50 [8] was 12.3 µM and the IC50 [15] was ≥ 25 µM.
For `CNC(=O)c1cc(Oc2ccc(NC(=O)Nc3ccc(Cl)c(C(F)(F)F)c3)cc2)ccn1` [Sorafenib], the IC50 [19] is listed as 6 µM and the IC50 [20] is listed as 12.3 µM.
For `CN(C)C(=O)COC(=O)Cc1ccc(OC(=O)c2ccc(NC(=N)N)cc2)cc1.O=C(Nc1ccc([N+](=O)[O-])cc1Cl)c1cc(Cl)ccc1O` [Example 21], the “Cumulative permeation amount J” value ([21]; camostat, donor pH 5.0 FeSSIF 37° C., acceptor ethyl alcohol:pH 7.4 PBS (1:9)) was 876.29 μg/ml/cm^2/h and 876.26 μg/ml/cm^2/h and the “cumulative permeation amount of camostat, fold better than camostat single material” value ([21]; cocrystal vs camostat single material) was 1.56 fold.
Work on `CC(=O)O[C@H]1C(=O)[C@@]2(C)[C@H]([C@H](OC(=O)c3ccccc3)[C@]3(O)C[C@H](OC(=O)[C@H](O)[C@@H](NC(=O)c4ccccc4)c4ccccc4)C(C)=C1C3(C)C)[C@]1(OC(C)=O)CO[C@@H]1C[C@@H]2O` [Paclitaxel, reference compound] yielded an IC50 ([3]; Homo sapiens) of 13.7 µM.
For `CN(C)C(=O)COC(=O)Cc1ccc(OC(=O)c2ccc(NC(=N)N)cc2)cc1.O=C(Nc1ccc([N+](=O)[O-])cc1Cl)c1cc(Cl)ccc1O` [Example 17], the IC50 [3] was 5.82 µM, the IC50 [6] was 6.29 µM and the “IC50 fold lower than Tamoxifen” value [6] was 1.4 fold. For the same molecule, the “pH 7 solubility” value [22] was 55.2 μg/ml, the IC50 [7] was 1.5 µM and the “IC50 fold lower than Herceptin” value [7] was 16 fold. For the same molecule, the IC50 [8] was 4.55 µM, the “Cumulative permeation amount of drug” value [23] was 2.03 μg/ml/cm^2/h and the “cumulative permeation amount of niclosamide, fold better than niclosamide single material” value [23] was 1.72 fold. For the same molecule, the IC50 [13] was 7.48 µM, the CC50 (Vero cells) was > 50 µM and the IC50 [15] was 2.25 µM. For the same molecule, the “IC50 fold lower than Cisplatin” value [15] was 11 fold, the “SI (selectivity index, CC50/IC50)” value (SARS-CoV-2; SARS-CoV-2 in Vero cells) was 313 and the IC50 (SARS-CoV-2; [24]) was 0.16 µM.
In the case of `O=C(Nc1ccc([N+](=O)[O-])cc1Cl)c1cc(Cl)ccc1O` [Niclosamide], the “pH 7 solubility” value [22] is reported as “hardly detected”, the “pH 7 solubility” value ([22]; 1 h) is reported as <0.3 μg/ml and the “Cumulative permeation amount of drug” value ([23]; 4 mg/ml) is reported as 1.18 μg/ml/cm^2/h.
